According to US20040127518A1, “Modulation of anxiety through blockade of anandamide hydrolysis” (priority 2002, published 2004):

How the values were obtained:
[1] = Food intake in free-feeding rats; type: in vivo, rat; conditions: UCM532 10 mg kg-1 i.p.; UCM597 0.3 mg kg-1 i.p.; data not shown
Protocol: We recorded food intake in free-feeding rats by using an automated system (Scipro Inc., New York). Rats were acclimated to the test cages for three days prior to the tests. Each test began at the onset of the dark phase and lasted for 24 hours.

Mouse formalin test = type: in vivo; conditions: 0.5 mg kg-1 i.p.
Protocol: (§1) We dissolved FAAH inhibitors in polyethyleneglycol/water (1/1) and rimonabant in saline. Formalin and hot-plate assays were carried out in the mouse, as described (Beltramo, M. et al., FEBS Lett., 403, 263-267 (1997)).
(§2) The compounds exerted, however, moderate antinociceptive effects in two models of acute pain.

rat cortical neurons = experiment: Transport, accumulation and release of non-metabolized [3H]anandamide in cortical neurons; type: cell-based
CB2 receptor = CB2 receptor (Homo sapiens, UniProt P34972); experiment: CB2 binding assay in CB2-overexpressing Chinese hamster ovary cells, [3H]WIN-55212-2
Chain of CB2 receptor (P34972 whole entry): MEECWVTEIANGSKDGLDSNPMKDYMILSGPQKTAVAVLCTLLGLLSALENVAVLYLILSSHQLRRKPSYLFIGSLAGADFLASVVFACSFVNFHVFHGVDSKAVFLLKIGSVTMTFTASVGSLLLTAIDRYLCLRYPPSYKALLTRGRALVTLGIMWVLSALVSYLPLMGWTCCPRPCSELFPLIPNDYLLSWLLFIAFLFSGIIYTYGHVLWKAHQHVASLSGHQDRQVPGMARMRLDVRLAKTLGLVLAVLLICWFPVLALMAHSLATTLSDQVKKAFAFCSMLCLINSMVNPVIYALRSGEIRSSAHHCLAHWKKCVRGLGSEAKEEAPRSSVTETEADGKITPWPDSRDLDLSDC
From the text: (§4) We prepared cell fractions from rat brain homogenates, and assayed membrane FAAH activity and cytosol MGL activity using anandamide [ethanolamine-3H] (American Radiolabeled Chemicals, ARC (St. Louis Mo.), 60 Ci/mmol) and 2-mono-oleoyl-glycerol-[glycerol-1,2,3^−3H] (ARC, St. Louis Mo., 20 Ci/mmol), respectively, as substrates (Dinh, T. Proc. Natl. Acad. Sci. U.S.A. (2002)). We conducted [^3H]anandamide transport assays in human astrocytoma cells (Piomelli, D. et al., Proc. Natl. Acad. Sci. U.S.A., 96, 5802-5807 (1999)); CB1 and CB2 binding assays in rat cerebellar membranes and CB2-overexpressing Chinese hamster ovary cells (Receptor Biology-Perkin Elmer, Wellesley, Mass.), respectively, using [^3H]WIN-55212-2 (NEN-Dupont, Boston, Mass., 40-60 Ci/mmol) as a ligand (Devane, W. A. et al. Science, 258, 1946-1949 (1992)); cholinesterase assays with a commercial kit (Sigma, St. Louis, Mo.), using purified enzymes (electric eel acetylcholinesterase type V-S and horse serum cholinesterase; both from Sigma, St. Louis, Mo.) and following manufacturer's instructions.

anandamide transport = experiment: [3H]anandamide transport assay in human astrocytoma cells; conditions: human astrocytoma cells
From the text: as §4

[2] = target: electric eel acetylcholinesterase (Electrophorus electricus, UniProt O42275)
Chain of electric eel acetylcholinesterase (O42275 whole entry): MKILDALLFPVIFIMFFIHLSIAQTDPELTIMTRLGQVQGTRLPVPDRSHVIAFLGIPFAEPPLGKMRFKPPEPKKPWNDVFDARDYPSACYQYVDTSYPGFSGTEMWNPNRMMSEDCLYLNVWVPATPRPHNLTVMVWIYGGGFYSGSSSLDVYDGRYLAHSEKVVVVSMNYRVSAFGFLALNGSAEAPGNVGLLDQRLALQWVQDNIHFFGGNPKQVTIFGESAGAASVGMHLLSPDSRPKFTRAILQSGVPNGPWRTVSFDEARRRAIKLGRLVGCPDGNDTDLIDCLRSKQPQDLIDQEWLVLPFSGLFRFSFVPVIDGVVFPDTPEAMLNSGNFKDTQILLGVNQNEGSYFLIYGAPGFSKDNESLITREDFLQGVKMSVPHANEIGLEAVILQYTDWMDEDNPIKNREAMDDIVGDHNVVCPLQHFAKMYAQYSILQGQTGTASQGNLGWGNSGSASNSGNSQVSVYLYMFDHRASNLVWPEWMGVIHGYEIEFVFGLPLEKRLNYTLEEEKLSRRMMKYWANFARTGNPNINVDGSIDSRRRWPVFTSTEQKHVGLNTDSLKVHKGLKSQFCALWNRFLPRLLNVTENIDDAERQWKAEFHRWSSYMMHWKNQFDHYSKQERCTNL

Mouse hot-plate test = type: in vivo; conditions: 0.5 mg kg-1 i.p., 60 min before test
Protocol: as §1, §2

[3] = system: brain content of anandamide, other fatty acid ethanolamides and 2-AG; experiment: Brain levels of fatty acid ethanolamides and 2-AG by HPLC/MS; type: in vivo, rat; conditions: 0.3 mg kg-1 i.p., 2 h after injection
From the text: We extracted lipids from tissues with a methanol-chloroform mixture and fractionated them by silica gel column chromatography (Giuffrida, A. et al., Anal. Biochem., 280, 87-93 (2000)). Anandamide and other fatty acid derivatives were quantified by HPLC/MS, using an isotope dilution method (Giuffrida, A. et al., Anal. Biochem., 280, 87-93 (2000)).

[4] = target: T1, rat brain monoglyceride lipase (MGL) (Rattus norvegicus, UniProt Q8R431); experiment: Cytosol MGL activity, 2-mono-oleoyl-glycerol as substrate
T1 sequence (Q8R431 1-303): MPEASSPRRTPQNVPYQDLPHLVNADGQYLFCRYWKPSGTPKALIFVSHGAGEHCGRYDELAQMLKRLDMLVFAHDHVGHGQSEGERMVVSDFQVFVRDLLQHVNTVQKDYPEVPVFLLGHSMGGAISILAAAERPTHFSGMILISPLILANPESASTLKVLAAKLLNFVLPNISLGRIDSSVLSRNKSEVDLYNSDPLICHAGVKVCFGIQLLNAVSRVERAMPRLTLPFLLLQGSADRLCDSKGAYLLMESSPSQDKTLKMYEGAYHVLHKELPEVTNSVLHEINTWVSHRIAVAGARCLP
From the text: as §4

[5] = target: horse plasma butyryl cholinesterase (Equus caballus, UniProt P81908); experiment: Cholinesterase assay with commercial kit, purified enzyme
Chain of horse plasma butyryl cholinesterase (P81908 whole entry): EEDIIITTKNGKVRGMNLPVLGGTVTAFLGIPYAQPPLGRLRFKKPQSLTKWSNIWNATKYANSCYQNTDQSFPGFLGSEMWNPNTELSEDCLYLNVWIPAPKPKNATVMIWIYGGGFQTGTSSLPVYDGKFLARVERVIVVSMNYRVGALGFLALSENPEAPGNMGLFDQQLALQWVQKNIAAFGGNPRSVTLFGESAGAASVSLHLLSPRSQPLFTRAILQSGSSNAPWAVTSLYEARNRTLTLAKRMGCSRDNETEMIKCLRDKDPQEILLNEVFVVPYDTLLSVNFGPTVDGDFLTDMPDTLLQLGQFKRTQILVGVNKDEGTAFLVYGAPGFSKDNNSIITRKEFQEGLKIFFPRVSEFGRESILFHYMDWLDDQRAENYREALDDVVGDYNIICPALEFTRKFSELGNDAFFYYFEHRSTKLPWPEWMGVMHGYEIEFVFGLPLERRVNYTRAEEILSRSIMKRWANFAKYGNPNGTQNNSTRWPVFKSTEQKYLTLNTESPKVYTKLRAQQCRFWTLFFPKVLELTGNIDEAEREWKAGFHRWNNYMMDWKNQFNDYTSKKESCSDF
From the text: as §4

Elevated zero maze test = type: in vivo, rat; conditions: adult rats; i.p. 30 min before test; UCM532 5 and 10 mg kg-1; UCM597 0.05-0.1 mg kg-1
Protocol: We dissolved FAAH inhibitors and rimonabant in dimethylsulfoxide (DMSO)/saline (7/3 and 9/1, respectively); we administered FAAH inhibitors by i.p. injection 30 min before tests and rimonabant 30 min before UCM532. The elevated zero maze was comprised of a black Perspex annular platform (105 cm diameter, 10 cm width) elevated to 65 cm above ground level, divided equally into four quadrants (Bickerdike, M. J. et al., Eur. J. Pharmacol., 271, 403-411 (1994); Shepherd, J. K. et al., Psychopharmacology, 116, 56-64 (1994)). […] We placed the rats in a closed quadrant and video recorded them for 5-min periods, thoroughly cleaning the maze between sessions. […] Results are expressed as percent time in open quadrant/total time (percent time open). Results were analyzed by one-way ANOVA followed by Tukey's test. We recorded motor activity of each rat in an Opto-Varimex cage (Columbus Instruments, Columbus, Ohio) linked on-line to a computer and placed in a sound-attenuated room illuminated by a 20-W white light. The amount of time spent in ambulatory activity was analyzed using an Auto-Track software (Columbus Instruments, Columbus, Ohio) as described elsewhere (Ali, M. M. et al., Neurosci. Lett., 284, 57-60 (2000); Wedzony, K. et al., Neuropsychopharmacology, 23, 547-559 (2000)). […] We analyzed data by overall one-way ANOVA followed by Tukey's test for individual between-group comparisons. […]

Catalepsy = type: in vivo; conditions: UCM532 10 mg kg-1 i.p.; UCM597 0.3 mg kg-1 i.p.; data not shown
From the text: (§3) We dissolved all compounds in saline/Tween 80/polyethylenglycol (90/5/5) and administered them by i.p. injection immediately before tests. We measured body temperature with a rectal probe (Type T, Copper-Costantan Thermocouple-Physitemp Instruments INC, Clifton, N.J.) connected to a digital thermometer (model BAT-12 Physitemp Instruments INC, Clifton, N.J.); and catalepsy using the procedure described in Tseng and Craft (Tseng, A. H. et al., Eur. J. Pharmacol., 430, 41-47 (2001)).

[6] = Body temperature (rectal probe); type: in vivo
From the text: as §3

NC(=O)c1cccc(-c2cccc(OC(=O)NC3CCCCC3)c2)c1 [UCM597, cyclohexylcarbamic acid 3′-carbamoylbiphenyl-3-yl ester]
hyperphagia (increased food intake) [1]: no
early phase of formalin-evoked pain behavior (Mouse formalin test): attenuated
late phase of formalin-evoked pain behavior (Mouse formalin test): little or no change
accumulation of non-metabolized [3H]anandamide in neurons (rat cortical neurons; 4-min incubation, UCM532 3 μM, UCM597 10 nM, AM404 10 μM): promote accumulation
accumulated [3H]anandamide released back into the medium (rat cortical neurons; UCM597-treated (10 nM) neurons, 15 min in [3H]anandamide-free solution, n=3): 42.6±8.7%
carrier-mediated uptake of [3H]anandamide (rat cortical neurons; rat cortical neurons): without reducing
effect on binding of a high-affinity ligand to CB2 (in words) (CB2 receptor): no effect
effect on anandamide transport (in words) (anandamide transport): no effect
effect on acetylcholinesterase activity (in words) [2]: did not affect
response latencies, hot-plate test (Mouse hot-plate test): significantly lengthened
brain content of 2-AG [3]: did not change
brain content of anandamide [3]: significant elevations
brain content of oleoylethanolamide ([3]; n=8-15): 725.3 ± 28.6 pmol g^−1 of tissue
brain content of palmitoylethanolamide ([3]; n=8-15): 1324±395 pmol g^−1 of tissue
effect on MGL activity (in words) [4]: did not affect
effect on butyryl cholinesterase activity (in words) [5]: did not affect
percent time open, elevated zero maze (Elevated zero maze test): anxiolytic-like responses
catalepsy (rigid immobility) (Catalepsy): no catalepsy
body temperature / hypothermia, compound alone ([6]; UCM532 10 mg kg-1 i.p., UCM597 0.3 mg kg-1 i.p.): no effect and no
decrease in body temperature elicited by anandamide ([6]; UCM597 0.3 mg kg-1 i.p. 30 min before anandamide 5 mg kg-1 i.p.): intensified and prolonged
